# Reference: PubChem BioAssay AID222 (DTP/NCI, 2004)
# Values joined by “and” are separate entries in the source; they are usually repeats but may differ in a detail not shown here. Equal entries are not always repeated. Toxic doses and inconclusive results are not listed.
# System: C57BL/6 mice, intracerebral ependymoblastoma, median survival T/C
# Experiment: NCI In Vivo Anticancer Drug Screen. Data for tumor model Ependymoblastoma (intracerebral) in C57BL/6 mice
# Settings: endpoint: median survival time, higher = longer survival
# Method: The antitumor activity of compounds was measured in mice bearing transplantable tumors. Survival or tumor size were measured and the results are expressed as the measurement made in the treated group (T) divided by the measurement made in the vehicle treated control group (C). The tumor model used in this assay is Ependymoblastoma (intracerebral) in C57BL/6 mice
# [1] = dose: 4.0 mg/kg/injection, schedule: Q01DX005 (ip), vehicle: saline
# [2] = dose: 8.0 mg/kg/injection, schedule: Q01DX005 (ip), vehicle: saline
smiles,measurement,setting,value
Nc1ccc(S(=O)(=O)c2ccc(N)cc2)cc1,T/C,"dose: 12.5 mg/kg/injection, schedule: Q01DX005 (ip), vehicle: saline with Tween-80",108 % of control
same,T/C,"dose: 25.0 mg/kg/injection, schedule: Q01DX005 (ip), vehicle: saline with Tween-80",108 % of control
same,T/C,"dose: 45.0 mg/kg/injection, schedule: Q01DX005 (ip), vehicle: saline with Tween-80",98 % of control and 102 % of control
same,T/C,"dose: 50.0 mg/kg/injection, schedule: Q01DX005 (ip), vehicle: saline with Tween-80",87 % of control
same,T/C,"dose: 90.0 mg/kg/injection, schedule: Q01DX005 (ip), vehicle: saline with Tween-80",96 % of control and 98 % of control
same,T/C,"dose: 100.0 mg/kg/injection, schedule: Q01DX005 (ip), vehicle: saline with Tween-80",100 % of control
same,T/C,"dose: 180.0 mg/kg/injection, schedule: Q01DX005 (ip), vehicle: saline with Tween-80",101 % of control and 87 % of control
same,T/C,"dose: 200.0 mg/kg/injection, schedule: Q01DX005 (ip), vehicle: saline with Tween-80",86 % of control
Nc1nc(=S)c2ncn(C3OC(CO)CC3O)c2[nH]1 (configuration not stated),T/C,"dose: 5.0 mg/kg/injection, schedule: Q01DX005 (ip), vehicle: saline",99 % of control
same,T/C,"dose: 10.0 mg/kg/injection, schedule: Q01DX005 (ip), vehicle: saline",99 % of control
C[CH2][Ge]1([CH2]C)[CH2]CC2(CCN(CCCN(C)C)C2)C[CH2]1,T/C,[1],104 % of control
same,T/C,[2],98 % of control and 101 % of control and 108 % of control
COc1cc2c(c(OC)c1OC)-c1ccc(OC)c(=O)cc1[C@@H](NC(C)=O)CC2,T/C,"dose: 0.05 mg/kg/injection, schedule: Q01DX005 (ip), vehicle: saline",104 % of control
same,T/C,"dose: 0.1 mg/kg/injection, schedule: Q01DX005 (ip), vehicle: saline",98 % of control
same,T/C,"dose: 0.2 mg/kg/injection, schedule: Q01DX005 (ip), vehicle: saline",108 % of control
same,T/C,"dose: 0.4 mg/kg/injection, schedule: Q01DX005 (ip), vehicle: saline",90 % of control
same,T/C,"dose: 0.8 mg/kg/injection, schedule: Q01DX005 (ip), vehicle: saline",103 % of control
Nc1nc([Se])c2ncn(C3OC(CO)C(O)C3O)c2n1 (configuration not stated),T/C,"dose: 0.25 mg/kg/injection, schedule: Q01DX005 (ip), vehicle: Klucel (hydroxypropylcellulose) (HPC)",103 % of control and 106 % of control
same,T/C,"dose: 0.5 mg/kg/injection, schedule: Q01DX005 (ip), vehicle: Klucel (hydroxypropylcellulose) (HPC)",107 % of control and 112 % of control
same,T/C,"dose: 1.0 mg/kg/injection, schedule: Q01DX005 (ip), vehicle: Klucel (hydroxypropylcellulose) (HPC)",99 % of control and 101 % of control
same,T/C,"dose: 2.0 mg/kg/injection, schedule: Q01DX005 (ip), vehicle: Klucel (hydroxypropylcellulose) (HPC)",100 % of control and 102 % of control and 112 % of control
same,T/C,"dose: 4.0 mg/kg/injection, schedule: Q01DX005 (ip), vehicle: Klucel (hydroxypropylcellulose) (HPC)",88 % of control and 105 % of control and 112 % of control
same,T/C,"dose: 4.0 mg/kg/injection, schedule: Q01DX005 (ip), vehicle: saline with Tween-80",96 % of control
same,T/C,[1],100 % of control
same,T/C,"dose: 8.0 mg/kg/injection, schedule: Q01DX005 (ip), vehicle: saline with Tween-80",100 % of control
same,T/C,[2],98 % of control and 99 % of control
same,T/C,"dose: 16.0 mg/kg/injection, schedule: Q01DX005 (ip), vehicle: Klucel (hydroxypropylcellulose) (HPC)",102 % of control and 103 % of control
same,T/C,"dose: 16.0 mg/kg/injection, schedule: Q01DX005 (ip), vehicle: saline with Tween-80",113 % of control
same,T/C,"dose: 16.0 mg/kg/injection, schedule: Q01DX005 (ip), vehicle: saline",106 % of control and 111 % of control
same,T/C,"dose: 27.8 mg/kg/injection, schedule: Q## X006 (ip), vehicle: saline",108 % of control
same,T/C,"dose: 32.0 mg/kg/injection, schedule: Q01DX005 (ip), vehicle: saline",116 % of control
same,T/C,"dose: 32.0 mg/kg/injection, schedule: Q#A X002 (ip), vehicle: saline",95 % of control and 104 % of control
same,T/C,"dose: 55.7 mg/kg/injection, schedule: Q## X006 (ip), vehicle: saline",112 % of control
same,T/C,"dose: 64.0 mg/kg/injection, schedule: Q#A X002 (ip), vehicle: saline",101 % of control and 120 % of control
same,T/C,"dose: 128.0 mg/kg/injection, schedule: Q#A X002 (ip), vehicle: saline",87 % of control
O=NN(CCF)C(=O)NC1CCCCC1,T/C,"dose: 10.0 mg/kg/injection, schedule: Q01DX005 (ip), vehicle: suspension in saline",123 % of control
same,T/C,"dose: 20.0 mg/kg/injection, schedule: Q01DX005 (ip), vehicle: suspension in saline",262 % of control
